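96-well plates; 48 h exposure; 5 concentrations. Endpoints by linear interpolation between flanking doses. Not reached: highest tested concentration assigned. GI50 marks 50% less growth. TGI: total growth inhibition.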
Experiments:
Assay in all cases: NCI tumour cell line growth inhibition, 48 h; in the data active = GI50 below about 0.43 µM; inactive = the rest
786-0 renal = system: 786-0 renal
A498 renal = system: A498 renal
A549 NSCLC = system: A549 NSCLC
ACHN renal = system: ACHN renal
BT-549 breast = system: BT-549 breast
CAKI-1 renal = system: CAKI-1 renal
CCRF-CEM leukemia = system: CCRF-CEM leukemia
COLO 205 colon = system: COLO 205 colon
DU-145 prostate = system: DU-145 prostate
EKVX NSCLC = system: EKVX NSCLC
HCC-2998 colon = system: HCC-2998 colon
HCT-116 colon = system: HCT-116 colon
HCT-15 colon = system: HCT-15 colon
HL-60(TB) leukemia = system: HL-60(TB) leukemia
HOP-62 NSCLC = system: HOP-62 NSCLC
HOP-92 NSCLC = system: HOP-92 NSCLC
HS 578T breast = system: HS 578T breast
HT29 colon = system: HT29 colon
IGROV1 ovarian = system: IGROV1 ovarian
K-562 leukemia = system: K-562 leukemia
KM12 colon = system: KM12 colon
LOX IMVI melanoma = system: LOX IMVI melanoma
M14 melanoma = system: M14 melanoma
MALME-3M melanoma = system: MALME-3M melanoma
MCF7 breast = system: MCF7 breast
MDA-MB-231 breast = system: MDA-MB-231 breast
MDA-MB-435 = system: MDA-MB-435
MOLT-4 leukemia = system: MOLT-4 leukemia
NCI-H226 lung = system: NCI-H226 lung
NCI-H23 lung = system: NCI-H23 lung
NCI-H460 lung = system: NCI-H460 lung
NCI-H522 lung = system: NCI-H522 lung
NCI/ADR-RES ovarian = system: NCI/ADR-RES ovarian
OVCAR-3 ovarian = system: OVCAR-3 ovarian
OVCAR-4 ovarian = system: OVCAR-4 ovarian
OVCAR-5 ovarian = system: OVCAR-5 ovarian
OVCAR-8 ovarian = system: OVCAR-8 ovarian
PC-3 prostate = system: PC-3 prostate
RPMI-8226 leukemia = system: RPMI-8226 leukemia
RXF 393 renal = system: RXF 393 renal
SF-268 CNS = system: SF-268 CNS
SF-295 CNS = system: SF-295 CNS
SF-539 CNS = system: SF-539 CNS
SK-MEL-2 melanoma = system: SK-MEL-2 melanoma
SK-MEL-28 melanoma = system: SK-MEL-28 melanoma
SK-MEL-5 melanoma = system: SK-MEL-5 melanoma
SK-OV-3 ovarian = system: SK-OV-3 ovarian
SN12C renal = system: SN12C renal
SNB-19 CNS = system: SNB-19 CNS
SNB-75 CNS = system: SNB-75 CNS
SR leukemia = system: SR leukemia
SW-620 colon = system: SW-620 colon
T-47D breast = system: T-47D breast
TK-10 renal = system: TK-10 renal
U251 CNS = system: U251 CNS
UACC-257 melanoma = system: UACC-257 melanoma
UACC-62 melanoma = system: UACC-62 melanoma
UO-31 renal = system: UO-31 renal

Nc1ncnc2c1ncn2C1OC(F)(COS(N)(=O)=O)C(O)C1O (stereo unspecified)
> 100 µM: TGI (786-0 renal) | TGI (A498 renal) | TGI (A549 NSCLC) | TGI (ACHN renal) | TGI (BT-549 breast) | TGI (CAKI-1 renal) | TGI (CCRF-CEM leukemia) | TGI (COLO 205 colon) | TGI (DU-145 prostate) | TGI (EKVX NSCLC) | TGI (HCC-2998 colon) | TGI (HCT-116 colon) | TGI (HCT-15 colon) | TGI (HL-60(TB) leukemia) | TGI (HOP-62 NSCLC) | TGI (HOP-92 NSCLC) | TGI (HS 578T breast) | TGI (HT29 colon) | TGI (IGROV1 ovarian) | TGI (K-562 leukemia) | TGI (KM12 colon) | TGI (LOX IMVI melanoma) | TGI (M14 melanoma) | TGI (MALME-3M melanoma) | TGI (MCF7 breast) | TGI (MDA-MB-231 breast) | TGI (MDA-MB-435) | TGI (MOLT-4 leukemia) | TGI (NCI-H226 lung) | TGI (NCI-H23 lung) | TGI (NCI-H460 lung) | TGI (NCI-H522 lung) | TGI (NCI/ADR-RES ovarian) | TGI (OVCAR-3 ovarian) | TGI (OVCAR-4 ovarian) | TGI (OVCAR-5 ovarian) | TGI (OVCAR-8 ovarian) | TGI (PC-3 prostate) | TGI (RPMI-8226 leukemia) | TGI (RXF 393 renal) | TGI (SF-268 CNS) | TGI (SF-295 CNS) | TGI (SF-539 CNS) | TGI (SK-MEL-2 melanoma) | TGI (SK-MEL-28 melanoma) | TGI (SK-MEL-5 melanoma) | TGI (SK-OV-3 ovarian) | TGI (SN12C renal) | TGI (SNB-19 CNS) | TGI (SNB-75 CNS) | TGI (SR leukemia) | TGI (SW-620 colon) | TGI (T-47D breast) | TGI (TK-10 renal) | TGI (U251 CNS) | TGI (UACC-257 melanoma) | TGI (UACC-62 melanoma) | TGI (UO-31 renal)
inactive: GI50 (786-0 renal) > 100 µM | GI50 (A498 renal) > 100 µM | GI50 (A549 NSCLC) > 100 µM | GI50 (ACHN renal) > 100 µM | GI50 (BT-549 breast) > 100 µM | GI50 (CAKI-1 renal) > 100 µM | GI50 (CCRF-CEM leukemia) > 100 µM | GI50 (COLO 205 colon) > 100 µM | GI50 (DU-145 prostate) > 100 µM | GI50 (EKVX NSCLC) > 100 µM | GI50 (HCC-2998 colon) > 100 µM | GI50 (HCT-116 colon) > 100 µM | GI50 (HCT-15 colon) > 100 µM | GI50 (HL-60(TB) leukemia) > 100 µM | GI50 (HOP-62 NSCLC) > 100 µM | GI50 (HOP-92 NSCLC) 36.3 µM | GI50 (HS 578T breast) > 100 µM | GI50 (HT29 colon) > 100 µM | GI50 (IGROV1 ovarian) > 100 µM | GI50 (K-562 leukemia) > 100 µM | GI50 (KM12 colon) > 100 µM | GI50 (LOX IMVI melanoma) > 100 µM | GI50 (M14 melanoma) > 100 µM | GI50 (MALME-3M melanoma) > 100 µM | GI50 (MCF7 breast) > 100 µM | GI50 (MDA-MB-231 breast) > 100 µM | GI50 (MDA-MB-435) > 100 µM | GI50 (MOLT-4 leukemia) > 100 µM | GI50 (NCI-H226 lung) > 100 µM | GI50 (NCI-H23 lung) > 100 µM | GI50 (NCI-H460 lung) > 100 µM | GI50 (NCI-H522 lung) > 100 µM | GI50 (NCI/ADR-RES ovarian) > 100 µM | GI50 (OVCAR-3 ovarian) > 100 µM | GI50 (OVCAR-4 ovarian) > 100 µM | GI50 (OVCAR-5 ovarian) > 100 µM | GI50 (OVCAR-8 ovarian) > 100 µM | GI50 (PC-3 prostate) > 100 µM | GI50 (RPMI-8226 leukemia) > 100 µM | GI50 (RXF 393 renal) 97.9 µM | GI50 (SF-268 CNS) > 100 µM | GI50 (SF-295 CNS) > 100 µM | GI50 (SF-539 CNS) > 100 µM | GI50 (SK-MEL-2 melanoma) > 100 µM | GI50 (SK-MEL-28 melanoma) > 100 µM | GI50 (SK-MEL-5 melanoma) > 100 µM | GI50 (SK-OV-3 ovarian) > 100 µM | GI50 (SN12C renal) > 100 µM | GI50 (SNB-19 CNS) > 100 µM | GI50 (SNB-75 CNS) > 100 µM | GI50 (SR leukemia) > 100 µM | GI50 (SW-620 colon) > 100 µM | GI50 (T-47D breast) > 100 µM | GI50 (TK-10 renal) > 100 µM | GI50 (U251 CNS) > 100 µM | GI50 (UACC-257 melanoma) > 100 µM | GI50 (UACC-62 melanoma) > 100 µM | GI50 (UO-31 renal) > 100 µM

Reference: PubChem BioAssay (NCI)
